The target of experiment [1] is T1, native human Bradykinin B1 receptor (Homo sapiens, UniProt P46663).
T1 construct: which express native human Bradykinin B1 receptor after induction with human IL-1beta; Coriell Institute; host or cells: IMR-90 human foetal lung fibroblasts, induced with human IL-1beta
T1 sequence (P46663 1-353): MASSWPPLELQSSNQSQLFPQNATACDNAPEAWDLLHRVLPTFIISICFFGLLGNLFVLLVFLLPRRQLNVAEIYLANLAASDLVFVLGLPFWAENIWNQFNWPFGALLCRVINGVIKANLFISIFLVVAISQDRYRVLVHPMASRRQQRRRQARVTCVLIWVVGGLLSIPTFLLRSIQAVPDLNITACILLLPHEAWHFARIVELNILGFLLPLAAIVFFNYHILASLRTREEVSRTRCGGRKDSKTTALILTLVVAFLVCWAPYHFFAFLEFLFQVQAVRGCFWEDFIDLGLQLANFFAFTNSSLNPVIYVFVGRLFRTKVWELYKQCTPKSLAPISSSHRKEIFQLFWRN
The experiment in a line: Calcium flux assay (FLIPR) with IMR-90 human fibroblasts expressing Bradykinin B1 receptor after IL-1beta induction (hB1 IMR-90). The class given is cell-based. The conditions noted are these: IMR-90 human fibroblasts after IL-1beta induction, read-out: hB1 IMR90 IC50. On the procedure: Calcium Flux Assay (FLIPR) with Human Fibroblasts Expressing Bradykinin B1 Receptor (hB1 IMR-90)
The Calcium flux Assay was carried out utilising IMR-90 human foetal lung fibroblasts (American Type Culture Collection, Rockville, MD; and Coriell Institute, Camden, New Jersey), which express native human Bradykinin B1 receptor after induction with human IL-1beta.
The fibroblasts were cultured in complete growth media comprised of Dulbecco's modified Eagle's medium (DMEM; Sigma) containing 10% foetal bovine serum, 4 mM L-glutamine, and 1% nonessential amino acids. The cells were maintained in a humidified atmosphere with 5% CO2 at 37° C. and were sub-cultured at a ratio of 1:3, every other day.
For the assay, IMR-90 fibroblasts were harvested using TrypLE Express (GIBCO/Invitrogen) and seeded into 384-well plates (Corning Cellbinding Surface, Cat. 3683) at a density of 15000 cells/well. The following day, cells were treated with 0.35 ng/mL human IL-1beta in 10% FBS/MEM for 3 h to up-regulate Bradykinin B1 receptor. Induced cells were loaded with fluorescent calcium indicator by incubation with 2.5 μM Fluo-4/AM (Invitrogen) at 37° C., 5% CO2 for 2 h in the presence of 2.5 mM probenecid in 1% FBS/MEM. […] Compound examples were assayed at 8 concentrations in triplicate. […] A peptide antagonist Lys-(Des-Arg-Leu)-Bradykinin (Bachem, Brackley) at 20 µM was used to determine the full inhibition as control. IC50 values were determined by the same way described for the FLI PR assay with recombinant cells.
In general terms: Calcium flux is commonly read through the fluorescence of an indicator in the cells.

Experiment [2] addresses T2, human Bradykinin B1 receptor (Homo sapiens, UniProt P46663).
T2 construct: host or cells: CHO-K1
T2 sequence (P46663 1-353): T1 sequence (P46663 1-353)
The experiment in a line: Calcium flux assay (FLIPR), CHO-K1 cells expressing human Bradykinin B1 receptor, absence of 0.1% BSA (hB1 free IC50). The experiment is classed as cell-based. Conditions: absence of 0.1% BSA in assay buffer. Put shortly: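 Peak FLIPR fluorescence (538 nm) after B1 agonist peptide addition gave IC50s, scaled between DMSO and full block by 20 µM Lys-(Des-Arg-Leu)-Bradykinin. Compounds were preincubated 30 min at 28° C with calcium-dye-loaded CHO-K1 cells expressing human B1, at 8 concentrations in triplicate, 1% DMSO final.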

The term IC50 denotes the concentration that inhibits the measured activity by half. Take `Cc1ccc(C2(C(=O)Nc3ccc(-n4cc(C(C)(C)C)cn4)c(C(=O)O)c3)CC2)c(F)c1` [Example 14, 2-(4-tert-Butyl-1H-pyrazol-1-yl)-5-({[1-(2-fluoro-4-methylphenyl)cyclopropyl]carbonyl}amino)benzoic acid]: the IC50 amounted to 1100 nM in experiment [1] and 1000 nM in experiment [2].
For `Cc1ccc(-c2ccc(NC(=O)C3(c4ccc(C(F)(F)F)cc4F)CC3)cc2C(=O)O)cn1` [Example 19, 5-[({1-[2-Fluoro-4-(trifluoromethyl)phenyl]cyclopropyl}carbonyl)amino]-2-(6-methylpyridin-3-yl)benzoic acid], in that order: 130 nM and 67 nM.
For `CC(C)n1cc(-c2c(F)cc(NC(=O)C3(c4ccc(C(F)(F)F)cc4F)CC3)cc2C(=O)O)cn1` [Example 88, 3-Fluoro-5-[({1-[2-fluoro-4-(trifluoromethyl)phenyl]cyclopropyl}carbonyl)amino]-2-[1-(propan-2-yl)-1H-pyrazol-4-yl]benzoic acid], in that order: 10 nM and 32 nM.
As for `CCC(F)(F)c1ccc(-c2c(F)cc(NC(=O)C3(c4ccc(OC(F)(F)F)cc4F)CC3)cc2C(=O)O)cn1` [Example 97, 2-[6-(1,1-Difluoropropyl)pyridin-3-yl]-3-fluoro-5-[({1-[2-fluoro-4-(trifluoromethoxy)phenyl]cyclopropyl}carbonyl)amino]benzoic acid], the IC50 in experiment [1] amounted to 25 nM; in experiment [2], 10 nM.
For `Cc1ccc(C2(C(=O)Nc3cc(F)c(-c4cnn(C5CCC5)c4)c(C(=O)O)c3)CC2)c(F)c1` [Example 25, 2-(1-Cyclobutyl-1H-pyrazol-4-yl)-3-fluoro-5-({[1-(2-fluoro-4-methylphenyl)cyclopropyl]carbonyl}amino)benzoic acid], in that order: 5.9 nM and 14 nM.
For `O=C(O)c1cc(NC(=O)C2(c3ccc(OC(F)(F)F)cc3F)CC2)cc(Cl)c1-c1cnn(C2CCC2)c1` [Example 101, 3-Chloro-2-(1-cyclobutyl-1H-pyrazol-4-yl)-5-[({1-[2-fluoro-4-(trifluoromethoxy)phenyl]cyclopropyl}carbonyl)amino]benzoic acid], in that order: 5.5 nM and 3.5 nM.
For `O=C(O)c1cc(NC(=O)C2(c3ccc(F)cn3)CC2)cc(F)c1-c1cnn(C2CCC2)c1` [Example 44, 2-(1-Cyclobutyl-1H-pyrazol-4-yl)-3-fluoro-5-({[1-(5-fluoropyridin-2-yl)cyclopropyl]carbonyl}amino)benzoic acid], in that order: 58 nM and 45 nM.
Consider `O=C(O)c1cc(NC(=O)C2(c3ccc(OC(F)(F)F)cc3F)CC2)cc(F)c1-c1ccc(C(F)F)nc1` [Example 95, 2-[6-(Difluoromethyl)pyridin-3-yl]-3-fluoro-5-[({1-[2-fluoro-4-(trifluoromethoxy)phenyl]cyclopropyl}carbonyl)amino]benzoic acid], for which the concentration for half-maximal inhibition (IC50) in experiment [1] was 21 nM; in experiment [2] it was 13 nM.
On to `CCC(F)(F)c1ccc(-c2ccc(NC(=O)C3(c4ccc(F)c(F)c4)CC3)cc2C(=O)O)cn1` [Example 20, 5-({[1-(3,4-Difluorophenyl)cyclopropyl]carbonyl}amino)-2-[6-(1,1-difluoropropyl)pyridin-3-yl]benzoic acid], for which the IC50 in experiment [1] is 1700 nM; in experiment [2] it was 2500 nM.
For `CC(C)(C)c1cnn(-c2ccc(NC(=O)C3(c4ccc(OC(F)(F)F)cc4F)CC3)cc2C(=O)O)c1` [Example 13, 2-(4-tert-Butyl-1H-pyrazol-1-yl)-5-[({1-[2-fluoro-4-(trifluoromethoxy)phenyl]cyclopropyl}carbonyl)amino]benzoic acid], in that order: 310 nM and 110 nM.
Regarding `O=C(O)c1cc(NC(=O)C2(c3ccc(Cl)cc3F)CC2)cc(F)c1-c1cnn(C2CCC2)c1` [Example 41, 5-({[1-(4-Chloro-2-fluorophenyl)cyclopropyl]carbonyl}amino)-2-(1-cyclobutyl-1H-pyrazol-4-yl)-3-fluorobenzoic acid], the half-maximal inhibitory concentration (IC50) in experiment [1] was determined as 3.7 nM; in experiment [2], 8.8 nM.
For `CCC(F)(F)c1ccc(-c2c(Cl)cc(NC(=O)C3(c4ccc(C(F)(F)F)cc4F)CC3)cc2C(=O)O)cn1` [Example 105, 3-Chloro-2-[6-(1,1-difluoropropyl)pyridin-3-yl]-5-[({1-[2-fluoro-4-(trifluoromethyl)phenyl]cyclopropyl}carbonyl)amino]benzoic acid], in that order: 74 nM and 17 nM.
For `O=C(O)c1cc(NC(=O)C2(c3ccc(C(F)(F)F)c(F)c3)CC2)cc(F)c1-c1cnn(C2CCC2)c1` [Example 39, 2-(1-Cyclobutyl-1H-pyrazol-4-yl)-3-fluoro-5-[({1-[3-fluoro-4-(trifluoromethyl)phenyl]cyclopropyl}carbonyl)amino]benzoic acid], in that order: 6.1 nM and 18 nM.
For `CC(C)Cn1cc(-c2ccc(NC(=O)C3(c4ccc(C(F)(F)F)cc4F)CC3)cc2C(=O)O)cn1` [Example 74, 5-[({1-[2-Fluoro-4-(trifluoromethyl)phenyl]cyclopropyl}carbonyl)amino]-2-[1-(2-methylpropyl)-1H-pyrazol-4-yl]benzoic acid], in that order: 15 nM and 17 nM.
Consider `O=C(O)c1cc(NC(=O)C2(c3ccc(OC(F)(F)F)cc3F)CC2)ccc1-c1ccc(C(F)(F)F)nc1` [Example 7, 5-[({1-[2-Fluoro-4-(trifluoromethoxy)phenyl]cyclopropyl}carbonyl)amino]-2-[6-(trifluoromethyl)pyridin-3-yl]benzoic acid], for which the IC50 in experiment [1] was 1100 nM; in experiment [2], 200 nM.
For `CCC(F)(F)c1ccc(-c2ccc(NC(=O)C3(c4ccc(OC(F)(F)F)cc4F)CC3)cc2C(=O)O)cn1` [Example 27, 2-[6-(1,1-Difluoropropyl)pyridin-3-yl]-5-[({1-[2-fluoro-4-(trifluoromethoxy)phenyl]cyclopropyl}carbonyl)amino]benzoic acid], in that order: 73 nM and 33 nM.
For `CC(C)n1cc(-c2ccc(NC(=O)C3(c4ccc(C(F)(F)F)cc4F)CC3)cc2C(=O)O)cn1` [Example 70, 5-[({1-[2-Fluoro-4-(trifluoromethyl)phenyl]cyclopropyl}carbonyl)amino]-2-[1-(propan-2-yl)-1H-pyrazol-4-yl]benzoic acid], in that order: 49 nM and 34 nM.
For `O=C(O)c1cc(NC(=O)C2(c3ccc(C(F)(F)F)cc3)CC2)cc(F)c1-c1cnn(C2CCC2)c1` [Example 36, 2-(1-Cyclobutyl-1H-pyrazol-4-yl)-3-fluoro-5-[({1-[4-(trifluoromethyl)phenyl]cyclopropyl}carbonyl)amino]benzoic acid], in that order: 14 nM and 6 nM.
As for `O=C(O)c1cc(NC(=O)C2(c3ccc(F)cc3F)CC2)cc(F)c1-c1cnn(C2CCC2)c1` [Example 40, 2-(1-Cyclobutyl-1H-pyrazol-4-yl)-5-({[1-(2,4-difluorophenyl)cyclopropyl]carbonyl}amino)-3-fluorobenzoic acid], the IC50 in experiment [1] came out at 11 nM; in experiment [2], 16 nM.
For `Cc1ccc(-c2ccc(NC(=O)C3(c4ccc(C(F)(F)F)cc4F)CC3)cc2C(=O)O)nc1` [Example 18, 5-[({1-[2-Fluoro-4-(trifluoromethyl)phenyl]cyclopropyl}carbonyl)amino]-2-(5-methylpyridin-2-yl)benzoic acid], the IC50 in experiment [1] stood at 830 nM; in experiment [2], 270 nM.
For `CC(C)Cn1cc(-c2ccc(NC(=O)C3(c4ccc(OC(F)(F)F)cc4F)CC3)cc2C(=O)O)cn1` [Example 75, 5-[({1-[2-Fluoro-4-(trifluoromethoxy)phenyl]cyclopropyl}carbonyl)amino]-2-[1-(2-methylpropyl)-1H-pyrazol-4-yl]benzoic acid], in that order: 18 nM and 11 nM.

(Values after US12023319B2, “Carboxylic acid aromatic amides” (priority 2016, dated 2024).)
